Common to all, as to assay type: cell-based, Staphylococcus aureus
Test [1] concerns sbnD mutant and wild type strains. The test is described as follows: MIC comparison of sbnD mutant and wild type strains. The following applies: sbnD::Km mutant versus wild type. The text has this: SbnD encodes a putative multi-drug efflux pump. A mutation in sbnD was created by insertion of a Km cassette.
In another test the test system is sbnB::Tet mutant. The following applies: iron-restricted media / serum. The text has this:
SbnB encodes a putative ornithine cyclodeaminase and may work in concert with SbnA to produce L-2,3-diaminopropionic acid, a likely precursor for staphylobactin. Ornithine cyclodeaminases mediate the deamination of ornithine and cyclization to proline and depended on NAD+. A mutation in sbnB was created by insertion of a Tet cassette. […] While proline is unlikely to be a siderophore precursor, ammonia may be a desired product for staphylobactin biosynthesis. […] Further, we observed in a mouse kidney abscess experiment, sbnB deficient strains were compromised for virulence (data not shown, n=7 mice).

The test system of another test is S. aureus RN6390. The test is described as follows: Siderophore plate bioassay (promotion of iron-restricted growth). The following applies: HPLC-isolated peak from culture supernatant of RN6390 fur::Km; TMS medium with 20 μM EDDHA. As for the experimental part:
The ability of siderophores to promote the iron-restricted growth of S. aureus was assessed using siderophore plate bioassays, performed as previously described (Sebulsky et al., (2000) J. Bacteriol. 182:4394-4400). Briefly, S. aureus RN6390 was incorporated into solid TMS medium (1.4×10^4 cells/ml) containing 20 μM EDDHA. The ability of purified siderophores to promote growth of S. aureus was assessed after incubation of plates for 36 hours at 37° C.

With `CCn1cc(C(=O)O)c(=O)c2cc(F)c(N3CCNCC3)cc21` [norfloxacin], the “difference in MIC (minimum inhibitory concentration) values between sbnD mutant and wild type strains” value in test [1] was “No difference”. In the case of `NCC(N)C(=O)O` (centres unmarked) [diaminopropionic acid], in the test with sbnB::Tet mutant, the “rescue of the iron-restricted growth phenotype of the sbnB mutant by added compound” value is on record as “can be overcome”.

`O=C(O)[C@@H]1CCCN1` [proline]: the “rescue of the iron-restricted growth phenotype of the sbnB mutant by added compound” value in the test on sbnB::Tet mutant is recorded as “does not bypass the sbnB mutation”. Take staphylobactin: in the test with S. aureus RN6390, the “biological activity in siderophore plate bioassays (promotion of iron-restricted growth of S. aureus)” value was “retained biological activity”.

Take `CCn1cc(C(=O)O)c(=O)c2ccc(C)nc21` [nalidixic acid]: the “difference in MIC (minimum inhibitory concentration) values between sbnD mutant and wild type strains” value in test [1] was “No difference”.

The values are drawn from patent US20110206685A1, “SCREENING ASSAYS FOR INHIBITORS OF A STAPHYLOCOCCUS AUREUS SIDEROPHORE” (priority 2004, published 2011).
